Measurements as given in the supplement of paper PMC6045584.
± gives the standard deviation of the averaged measurements.

compound: CCN(CC)CCCCNc1ncc2cc(-c3cc(OC)cc(OC)c3)c(NC(=O)NC(C)(C)C)nc2n1; assay: surviving fraction relative to DMSO-only wells; higher = less growth inhibition; details: 0.5 nM; exposure time: 5 days
Procedure, shortened: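 Luminescence normalised to the median of DMSO-only wells defines surviving fraction, with viability read by CellTiter-Glo. Signal was recorded after 10 minutes at room temperature, once log-phase tumour cell lines seeded at 250–500 cells per well in 384-well plates had spent 24 hours settling and then five days under continuous exposure to inhibitors at 0.5, 1, 5, 10, 50, 100, 500 and 1000 nM.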

| Test System | surviving fraction |
| --- | --- |
| SCC36 HEADNECK | 1.1 ± 0.082 |
| OS25HAL BONE | 0.969 ± 0.0072 |
| HCC1806 BREAST | 1.11 ± 0.012 |
| HU09 BONE | 1 ± 0.045 |
| SG43 HEADNECK | 0.9 ± 0.076 |
| U2OS BONE | 1 ± 0.011 |
| HOSMNG BONE | 1.02 ± 0.09 |
| CASKI CERVIX | 0.927 ± 0.03 |
| SUM44 BREAST | 0.956 ± 0.064 |
| MDAMB231 BREAST | 0.974 ± 0.03 |
| CAL51 BREAST | 0.92 ± 0.063 |
| MDAMB436 BREAST | 0.974 ± 0.053 |
| HSSYII SYNOVIAL | 0.799 ± 0.027 |
| RDES SOFT TISSUE | 1.2 ± 0.034 |
| MDAMB157 BREAST | 0.85 ± 0.13 |
| CHLA90 AUTONOMIC GANGLIA | 0.906 ± 0.053 |
| CADOES1 SOFT TISSUE | 0.942 ± 0.1 |
| SG31 HEADNECK | 1.04 ± 0.055 |
| SCC47 HEADNECK | 0.979 ± 0.033 |
| S68 BREAST | 0.948 ± 0.29 |
| SNU475 LIVER | 0.785 ± 0.028 |

| Test System | surviving fraction |
| --- | --- |
| 22RV1 PROSTATE | 1 ± 0.029 |
| SG32 HEADNECK | 1.03 ± 0.14 |
| SCC003 HEADNECK | 0.927 ± 0.046 |
| JURKAT HAEMATOPOIETIC AND LYMPHOID TISSUE | 1.03 ± 0.042 |
| HT1080 SOFT TISSUE | 1.036 ± 0.009 |
| CAL120 BREAST | 0.933 ± 0.032 |
| MCF7 BREAST | 0.884 ± 0.024 |
| MFM223 BREAST | 1.02 ± 0.04 |
| LNCAP PROSTATE | 0.864 ± 0.066 |
| PCI30 HEADNECK | 0.906 ± 0.074 |
| OSHN BONE | 1 ± 0.016 |
| SG28 HEADNECK | 1.04 ± 0.15 |
| HOS BONE | 0.99 ± 0.019 |
| HUO3N1 BONE | 0.996 ± 0.074 |
| BT20 BREAST | 1.17 ± 0.13 |
| SJSA1 BONE | 1.04 ± 0.052 |
| JIMT1 BREAST | 0.964 ± 0.028 |
| HCC78 LUNG | 0.977 ± 0.31 |
| NY BONE | 0.932 ± 0.031 |
| NOS1 BONE | 1.11 ± 0.046 |

same assay, conditions: 1 nM; exposure time: 5 days

| Test System | surviving fraction |
| --- | --- |
| SCC36 HEADNECK | 1.03 ± 0.12 |
| OS25HAL BONE | 0.983 ± 0.023 |
| HCC1806 BREAST | 0.967 ± 0.1 |
| HU09 BONE | 1.01 ± 0.047 |
| SG43 HEADNECK | 0.971 ± 0.053 |
| U2OS BONE | 0.994 ± 0.026 |
| HOSMNG BONE | 1 ± 0.072 |
| CASKI CERVIX | 0.907 ± 0.022 |
| SUM44 BREAST | 0.928 ± 0.04 |
| MDAMB231 BREAST | 0.975 ± 0.026 |
| CAL51 BREAST | 0.943 ± 0.013 |
| MDAMB436 BREAST | 0.802 ± 0.074 |
| HSSYII SYNOVIAL | 0.9 ± 0.044 |
| RDES SOFT TISSUE | 1.35 ± 0.094 |
| MDAMB157 BREAST | 0.935 ± 0.05 |
| CHLA90 AUTONOMIC GANGLIA | 1.02 ± 0.046 |
| CADOES1 SOFT TISSUE | 0.905 ± 0.1 |
| SG31 HEADNECK | 0.949 ± 0.11 |
| SCC47 HEADNECK | 0.993 ± 0.082 |
| S68 BREAST | 1.01 ± 0.22 |
| SNU475 LIVER | 0.964 ± 0.053 |

| Test System | surviving fraction |
| --- | --- |
| 22RV1 PROSTATE | 1.02 ± 0.048 |
| SG32 HEADNECK | 1.05 ± 0.086 |
| SCC003 HEADNECK | 1.02 ± 0.055 |
| JURKAT HAEMATOPOIETIC AND LYMPHOID TISSUE | 1.08 ± 0.015 |
| HT1080 SOFT TISSUE | 1.03 ± 0.024 |
| CAL120 BREAST | 0.918 ± 0.031 |
| MCF7 BREAST | 0.868 ± 0.063 |
| MFM223 BREAST | 1.1 ± 0.022 |
| LNCAP PROSTATE | 0.878 ± 0.1 |
| PCI30 HEADNECK | 0.969 ± 0.09 |
| OSHN BONE | 1.01 ± 0.017 |
| SG28 HEADNECK | 1.09 ± 0.076 |
| HOS BONE | 1.01 ± 0.013 |
| HUO3N1 BONE | 0.993 ± 0.047 |
| BT20 BREAST | 1.17 ± 0.065 |
| SJSA1 BONE | 1.04 ± 0.026 |
| JIMT1 BREAST | 0.951 ± 0.04 |
| HCC78 LUNG | 0.856 ± 0.038 |
| NY BONE | 0.942 ± 0.013 |
| NOS1 BONE | 1.19 ± 0.1 |

same assay, conditions: 5 nM; exposure time: 5 days

| Test System | surviving fraction |
| --- | --- |
| SCC36 HEADNECK | 1.1 ± 0.15 |
| OS25HAL BONE | 0.973 ± 0.0036 |
| HCC1806 BREAST | 1.11 ± 0.065 |
| HU09 BONE | 0.928 ± 0.028 |
| SG43 HEADNECK | 0.974 ± 0.15 |
| U2OS BONE | 1.03 ± 0.045 |
| HOSMNG BONE | 0.994 ± 0.04 |
| CASKI CERVIX | 0.953 ± 0.056 |
| SUM44 BREAST | 1.03 ± 0.019 |
| MDAMB231 BREAST | 0.9813 ± 0.0094 |
| CAL51 BREAST | 0.964 ± 0.061 |
| MDAMB436 BREAST | 0.912 ± 0.026 |
| HSSYII SYNOVIAL | 0.886 ± 0.029 |
| RDES SOFT TISSUE | 1.25 ± 0.088 |
| MDAMB157 BREAST | 0.898 ± 0.031 |
| CHLA90 AUTONOMIC GANGLIA | 0.892 ± 0.058 |
| CADOES1 SOFT TISSUE | 0.935 ± 0.21 |
| SG31 HEADNECK | 0.934 ± 0.15 |
| SCC47 HEADNECK | 0.996 ± 0.05 |
| S68 BREAST | 1.285 ± 0.0036 |
| SNU475 LIVER | 0.894 ± 0.05 |

| Test System | surviving fraction |
| --- | --- |
| 22RV1 PROSTATE | 0.964 ± 0.011 |
| SG32 HEADNECK | 1.15 ± 0.13 |
| SCC003 HEADNECK | 1.02 ± 0.092 |
| JURKAT HAEMATOPOIETIC AND LYMPHOID TISSUE | 1.04 ± 0.022 |
| HT1080 SOFT TISSUE | 1.02 ± 0.046 |
| CAL120 BREAST | 0.9335 ± 0.0035 |
| MCF7 BREAST | 0.864 ± 0.03 |
| MFM223 BREAST | 0.982 ± 0.1 |
| LNCAP PROSTATE | 0.7647 ± 0.0046 |
| PCI30 HEADNECK | 0.984 ± 0.11 |
| OSHN BONE | 1.01 ± 0.024 |
| SG28 HEADNECK | 1.03 ± 0.09 |
| HOS BONE | 0.9947 ± 0.0083 |
| HUO3N1 BONE | 1.04 ± 0.052 |
| BT20 BREAST | 1.09 ± 0.26 |
| SJSA1 BONE | 1.04 ± 0.026 |
| JIMT1 BREAST | 0.967 ± 0.054 |
| HCC78 LUNG | 0.997 ± 0.23 |
| NY BONE | 0.964 ± 0.015 |
| NOS1 BONE | 1.15 ± 0.094 |

same assay, conditions: 10 nM; exposure time: 5 days

| Test System | surviving fraction |
| --- | --- |
| SCC36 HEADNECK | 1.19 ± 0.028 |
| OS25HAL BONE | 1 ± 0.025 |
| HCC1806 BREAST | 1.14 ± 0.033 |
| HU09 BONE | 1.02 ± 0.12 |
| SG43 HEADNECK | 0.966 ± 0.095 |
| U2OS BONE | 1.01 ± 0.02 |
| HOSMNG BONE | 1.01 ± 0.062 |
| CASKI CERVIX | 0.982 ± 0.042 |
| SUM44 BREAST | 1.04 ± 0.087 |
| MDAMB231 BREAST | 1.01 ± 0.02 |
| CAL51 BREAST | 0.961 ± 0.042 |
| MDAMB436 BREAST | 0.911 ± 0.041 |
| HSSYII SYNOVIAL | 0.784 ± 0.05 |
| RDES SOFT TISSUE | 1.26 ± 0.11 |
| MDAMB157 BREAST | 0.993 ± 0.026 |
| CHLA90 AUTONOMIC GANGLIA | 0.9023 ± 0.0046 |
| CADOES1 SOFT TISSUE | 0.913 ± 0.071 |
| SG31 HEADNECK | 0.932 ± 0.12 |
| SCC47 HEADNECK | 1.07 ± 0.047 |
| S68 BREAST | 0.836 ± 0.1 |
| SNU475 LIVER | 0.987 ± 0.027 |

| Test System | surviving fraction |
| --- | --- |
| 22RV1 PROSTATE | 1.01 ± 0.013 |
| SG32 HEADNECK | 1.01 ± 0.16 |
| SCC003 HEADNECK | 1.01 ± 0.086 |
| JURKAT HAEMATOPOIETIC AND LYMPHOID TISSUE | 1.055 ± 0.0052 |
| HT1080 SOFT TISSUE | 1 ± 0.025 |
| CAL120 BREAST | 0.928 ± 0.023 |
| MCF7 BREAST | 0.877 ± 0.068 |
| MFM223 BREAST | 0.823 ± 0.089 |
| LNCAP PROSTATE | 0.922 ± 0.16 |
| PCI30 HEADNECK | 1.08 ± 0.058 |
| OSHN BONE | 1.03 ± 0.033 |
| SG28 HEADNECK | 1.11 ± 0.034 |
| HOS BONE | 1.03 ± 0.022 |
| HUO3N1 BONE | 0.999 ± 0.043 |
| BT20 BREAST | 1.17 ± 0.09 |
| SJSA1 BONE | 1.09 ± 0.034 |
| JIMT1 BREAST | 1.01 ± 0.037 |
| HCC78 LUNG | 0.968 ± 0.07 |
| NY BONE | 1 ± 0.029 |
| NOS1 BONE | 1.08 ± 0.056 |
